Publication PMC6738096 (British Journal of Cancer, 2019)

Test: Phase 1 dose-escalation trial: safety and tolerability (TEAEs, SAEs, DLT, MTD, RP2D)
Description: Endpoints included the incidence of DLTs (defined in the ‘Safety' section) in the first 28-day treatment cycle (cycle 1), the frequency and severity of adverse events (AEs) and serious AEs (SAEs) and changes in laboratory values, vital signs, physical examination findings and Eastern Cooperative Oncology Group (ECOG) performance status (PS).
The starting dose was 30 mg, which was determined by review of nonclinical toxicokinetic assessments. A treatment cycle comprised 28 days in the absence of disease progression or unacceptable toxicity. Patients received starting doses ranging from 30 mg once every 24 hours (Q24h) to 480 mg Q24h, and escalation proceeded based on a 3 + 3 design.
The subsequent cohort started at a reduced dosing regimen. Additional dosing schedules were once every 12 hours (Q12h) at 30 and 60 mg and once every 8 hours (Q8h) at 20 and 40 mg.
Toxicities were graded and recorded according to NCI CTCAE version 4.03. Patients were assessed for DLTs during the first 28-day cycle. A DLT was defined as any grade ≥ 3 nonhaematologic toxicity, according to NCI CTCAE version 4.03.

CC(C)NC(=O)[C@H]1CC[C@@H](n2c(NC(=O)c3ccc(F)cc3)nc3ccc(CN4CCC(C(C)(C)O)CC4)cc32)CC1 [TSR-011]
Drug-related TEAE: Abnormal dreams (20 mg Q8h (n = 16)): 1 (6.3) n (%)
Drug-related TEAE: Anaemia (20 mg Q8h (n = 16)): 0 n (%)
Drug-related TEAE: Asthenia (20 mg Q8h (n = 16)): 1 (6.3) n (%)
Drug-related TEAE: Constipation (20 mg Q8h (n = 16)): 2 (12.5) n (%)
Drug-related TEAE: Decreased appetite (20 mg Q8h (n = 16)): 1 (6.3) n (%)
Drug-related TEAE: Diarrhoea (20 mg Q8h (n = 16)): 1 (6.3) n (%)
Drug-related TEAE: Dysaesthesia (20 mg Q8h (n = 16)): 1 (6.3) n (%)
Drug-related TEAE: Dysgeusia (20 mg Q8h (n = 16)): 0 n (%)
Drug-related TEAE: Electrocardiogram QTc prolonged (20 mg Q8h (n = 16)): 1 (6.3) n (%)
Drug-related TEAE: Fatigue (20 mg Q8h (n = 16)): 1 (6.3) n (%)
Drug-related TEAE: Headache (20 mg Q8h (n = 16)): 0 n (%)
Drug-related TEAE: Hot flush (20 mg Q8h (n = 16)): 1 (6.3) n (%)
Drug-related TEAE: Increased transaminases (20 mg Q8h (n = 16)): 0 n (%)
Drug-related TEAE: Insomnia (20 mg Q8h (n = 16)): 0 n (%)
Drug-related TEAE: Myalgia (20 mg Q8h (n = 16)): 0 n (%)
Drug-related TEAE: Nausea (20 mg Q8h (n = 16)): 0 n (%)
Drug-related TEAE: Peripheral oedema (20 mg Q8h (n = 16)): 0 n (%)
Drug-related TEAE: Rash (20 mg Q8h (n = 16)): 0 n (%)
Drug-related TEAE: Vomiting (20 mg Q8h (n = 16)): 2 (12.5) n (%)
Grade 3 TEAE: Anaemia (20 mg Q8h (n = 16)): 2 (12.5) n (%)
Grade 3 TEAE: Ascites (20 mg Q8h (n = 16)): 1 (6.3) n (%)
Grade 3 TEAE: Asthenia (20 mg Q8h (n = 16)): 1 (6.3) n (%)
Grade 3 TEAE: Dyspnoea (20 mg Q8h (n = 16)): 0 n (%)
Grade 3 TEAE: Electrocardiogram QTc prolonged (20 mg Q8h (n = 16)): 0 n (%)
Grade 3 TEAE: Fatigue (20 mg Q8h (n = 16)): 1 (6.3) n (%)
Grade 3 TEAE: Metastases to the central nervous system (20 mg Q8h (n = 16)): 1 (6.3) n (%)
Patients with any TEAE (20 mg Q8h (n = 16)): 16 (100.0) Number (%)
Patients with any TEAE leading to treatment discontinuation (20 mg Q8h (n = 16)): 2 (12.5) Number (%)
Patients with any serious TEAE (20 mg Q8h (n = 16)): 7 (43.8) Number (%)
Patients with any study drug-related TEAE (20 mg Q8h (n = 16)): 9 (56.3) Number (%)
Patients with ≥ 1 treatment-emergent SAE (20 mg Q8h (n = 16)): 7 (43.8) n (%)
SAE class: Blood and lymphatic system disorders (20 mg Q8h (n = 16)): 0 n (%)
SAE class: Cardiac disorders (20 mg Q8h (n = 16)): 0 n (%)
SAE class: Gastrointestinal disorders (20 mg Q8h (n = 16)): 1 (6.3) n (%)
SAE class: General disorders and administration-site conditions (20 mg Q8h (n = 16)): 2 (12.5) n (%)
SAE class: Hepatobiliary disorders (20 mg Q8h (n = 16)): 1 (6.3) n (%)
SAE class: Infections and infestations (20 mg Q8h (n = 16)): 1 (6.3) n (%)
SAE class: Metabolism and nutrition disorders (20 mg Q8h (n = 16)): 1 (6.3) n (%)
SAE class: Musculoskeletal and connective tissue disorders (20 mg Q8h (n = 16)): 1 (6.3) n (%)
SAE class: Neoplasms benign, malignant and unspecified (including cysts and polyps) (20 mg Q8h (n = 16)): 2 (12.5) n (%)
SAE class: Nervous system disorders (20 mg Q8h (n = 16)): 1 (6.3) n (%)
SAE class: Respiratory, thoracic and mediastinal disorders (20 mg Q8h (n = 16)): 0 n (%)
SAE class: Vascular disorders (20 mg Q8h (n = 16)): 1 (6.3) n (%)
SAE: Abdominal pain (20 mg Q8h (n = 16)): 0 n (%)
SAE: Anaemia (20 mg Q8h (n = 16)): 0 n (%)
SAE: Asthenia (20 mg Q8h (n = 16)): 1 (6.3) n (%)
SAE: Basal cell carcinoma (20 mg Q8h (n = 16)): 1 (6.3) n (%)
SAE: Bone pain (20 mg Q8h (n = 16)): 1 (6.3) n (%)
SAE: Deep-vein thrombosis (20 mg Q8h (n = 16)): 1 (6.3) n (%)
SAE: Dehydration (20 mg Q8h (n = 16)): 1 (6.3) n (%)
SAE: Disease progression (20 mg Q8h (n = 16)): 2 (12.5) n (%)
SAE: Dyspnoea (20 mg Q8h (n = 16)): 0 n (%)
SAE: Gastric haemorrhage (20 mg Q8h (n = 16)): 1 (6.3) n (%)
SAE: Gastric ulcer helicobacter (20 mg Q8h (n = 16)): 0 n (%)
SAE: Infection (20 mg Q8h (n = 16)): 0 n (%)
SAE: Lower respiratory tract infection (20 mg Q8h (n = 16)): 0 n (%)
SAE: Mastoiditis (20 mg Q8h (n = 16)): 1 (6.3) n (%)
SAE: Mental impairment (20 mg Q8h (n = 16)): 1 (6.3) n (%)
SAE: Metastases to the central nervous system (20 mg Q8h (n = 16)): 1 (6.3) n (%)
SAE: Pericardial effusion (20 mg Q8h (n = 16)): 0 n (%)
SAE: Pleural effusion (20 mg Q8h (n = 16)): 0 n (%)
SAE: Pneumonia (20 mg Q8h (n = 16)): 0 n (%)
SAE: Portal vein thrombosis (20 mg Q8h (n = 16)): 1 (6.3) n (%)
SAE: Seizure (20 mg Q8h (n = 16)): 1 (6.3) n (%)
SAE: Subarachnoid haemorrhage (20 mg Q8h (n = 16)): 0 n (%)
Total number of TEAEs (20 mg Q8h (n = 16)): 159
Total number of treatment-emergent SAEs (20 mg Q8h (n = 16)): 14
Patients with any AE leading to death (20 mg Q8h (n = 16), none deemed related to treatment): 2 (12.5) Number (%)
Drug-related TEAE: Abnormal dreams (40 mg Q8h (n = 31)): 0 n (%)
Drug-related TEAE: Anaemia (40 mg Q8h (n = 31)): 1 (3.2) n (%)
Drug-related TEAE: Asthenia (40 mg Q8h (n = 31)): 0 n (%)
Drug-related TEAE: Constipation (40 mg Q8h (n = 31)): 2 (6.5) n (%)
Drug-related TEAE: Decreased appetite (40 mg Q8h (n = 31)): 0 n (%)
Drug-related TEAE: Diarrhoea (40 mg Q8h (n = 31)): 0 n (%)
Drug-related TEAE: Dysaesthesia (40 mg Q8h (n = 31)): 0 n (%)
Drug-related TEAE: Dysgeusia (40 mg Q8h (n = 31)): 0 n (%)
Drug-related TEAE: Electrocardiogram QTc prolonged (40 mg Q8h (n = 31)): 3 (9.7) n (%)
Drug-related TEAE: Fatigue (40 mg Q8h (n = 31)): 0 n (%)
Drug-related TEAE: Headache (40 mg Q8h (n = 31)): 0 n (%)
Drug-related TEAE: Hot flush (40 mg Q8h (n = 31)): 0 n (%)
Drug-related TEAE: Increased transaminases (40 mg Q8h (n = 31)): 0 n (%)
Drug-related TEAE: Insomnia (40 mg Q8h (n = 31)): 2 (6.5) n (%)
Drug-related TEAE: Myalgia (40 mg Q8h (n = 31)): 0 n (%)
Drug-related TEAE: Nausea (40 mg Q8h (n = 31)): 1 (3.2) n (%)
Drug-related TEAE: Peripheral oedema (40 mg Q8h (n = 31)): 1 (3.2) n (%)
Drug-related TEAE: Rash (40 mg Q8h (n = 31)): 1 (3.2) n (%)
Drug-related TEAE: Vomiting (40 mg Q8h (n = 31)): 1 (3.2) n (%)
Grade 3 TEAE: Anaemia (40 mg Q8h (n = 31)): 2 (6.5) n (%)
Grade 3 TEAE: Ascites (40 mg Q8h (n = 31)): 0 n (%)
Grade 3 TEAE: Asthenia (40 mg Q8h (n = 31)): 1 (3.2) n (%)
Grade 3 TEAE: Dyspnoea (40 mg Q8h (n = 31)): 0 n (%)
Grade 3 TEAE: Electrocardiogram QTc prolonged (40 mg Q8h (n = 31)): 1 (3.2) n (%)
Grade 3 TEAE: Fatigue (40 mg Q8h (n = 31)): 0 n (%)
Grade 3 TEAE: Metastases to the central nervous system (40 mg Q8h (n = 31)): 1 (3.2) n (%)
Patients with any TEAE (40 mg Q8h (n = 31)): 29 (93.5) Number (%)
Patients with any TEAE leading to treatment discontinuation (40 mg Q8h (n = 31)): 5 (16.1) Number (%)
Patients with any serious TEAE (40 mg Q8h (n = 31)): 12 (38.7) Number (%)
Patients with any study drug-related TEAE (40 mg Q8h (n = 31)): 13 (41.9) Number (%)
Patients with ≥ 1 treatment-emergent SAE (40 mg Q8h (n = 31)): 12 (38.7) n (%)
SAE class: Blood and lymphatic system disorders (40 mg Q8h (n = 31)): 2 (6.5) n (%)
SAE class: Cardiac disorders (40 mg Q8h (n = 31)): 1 (3.2) n (%)
SAE class: Gastrointestinal disorders (40 mg Q8h (n = 31)): 1 (3.2) n (%)
SAE class: General disorders and administration-site conditions (40 mg Q8h (n = 31)): 2 (6.5) n (%)
SAE class: Hepatobiliary disorders (40 mg Q8h (n = 31)): 0 n (%)
SAE class: Infections and infestations (40 mg Q8h (n = 31)): 4 (12.9) n (%)
SAE class: Metabolism and nutrition disorders (40 mg Q8h (n = 31)): 0 n (%)
SAE class: Musculoskeletal and connective tissue disorders (40 mg Q8h (n = 31)): 0 n (%)
SAE class: Neoplasms benign, malignant and unspecified (including cysts and polyps) (40 mg Q8h (n = 31)): 1 (3.2) n (%)
SAE class: Nervous system disorders (40 mg Q8h (n = 31)): 2 (6.5) n (%)
SAE class: Respiratory, thoracic and mediastinal disorders (40 mg Q8h (n = 31)): 1 (3.2) n (%)
SAE class: Vascular disorders (40 mg Q8h (n = 31)): 0 n (%)
SAE: Abdominal pain (40 mg Q8h (n = 31)): 1 (3.2) n (%)
SAE: Anaemia (40 mg Q8h (n = 31)): 2 (6.5) n (%)
SAE: Asthenia (40 mg Q8h (n = 31)): 0 n (%)
SAE: Basal cell carcinoma (40 mg Q8h (n = 31)): 0 n (%)
